system: Wnt/β-catenin; assay: β-catenin stabilization (Wnt pathway activation) in RKO cells (Western blot); assay type: cell-based; details: 16 hours, Western blot
Method: (§1) Primary Screen in RKO cells for compounds having typical CKIα inhibitory activity (β-catenin and p53 stabilization and histone H2AX phosphorylation; see Elyada et al, Nature 2011 Feb. 17; 470(7334):409-13; Pribluda et al, Cancer Cell 2013 Aug. 12; 24(2):242-56). RKO colorectal cells were incubated with 10 μM of each of the compounds for 16 hours at 37° C. Cells were washed with PBS and cell pellets were incubated with ice cold protein lysis buffer containing protease inhibitor cocktail (1/200; Calbiochem) and phosphatase inhibitors (20 mM p-nitrophenyl phosphate (PNPP), 20 mM β-glycerophosphate and 300 nM okadaic acid). Western blot analysis was performed by means of standard techniques. Blots were incubated with antibodies detecting β-catenin (1/2,500; BD Transduction), p53 (DO-1&1801 hybridoma mix; dilution of 1:20 of supernatants from each), CKIα (C-19; 1/1,000; Santa Cruz Biotechnology) and phospho-histoneH2AX (S139; 1/1,000; Millipore). Secondary antibodies were HRP-linked goat anti-mouse, goat anti-rabbit and rabbit anti-goat antibodies (all 1/10,000; Jackson). Blots were developed using ECL (GE Healthcare).
(§2) Active compounds were further analyzed in a dose-response experiment (FIGS. 1A and 1B). Similar to the primary screen, RKO cells were incubated with descending concentrations of each of the active compounds for 16 hours at 37° C. Cell extract isolation and Western Blot analysis were similar to the primary screen.
(§3) Table 1 provides quantified information for compounds of the invention in activation of p53 and DNA damage response (DDR) and β-catenin stabilization as an indicator of Wnt pathway activation. p53 activation was determined according to the degree of protein stabilization in several Western blot assays (Western blot examples are shown in FIGS. 1A and 1B). […] In contrast, A35 started stabilizing p53 at […], with maximal stabilization at […] (FIG. 1A, upper right panel) and thus received an average value of +++ for p53 activation.

Question: `Cn1ncc(-c2ccnc(NC3CCC(N)(CO)CC3)n2)c1CC1CC1` (centres unmarked) [Compound A19, (1-amino-4-((4-(5-(cyclopropylmethyl)-1-methyl-1H-pyrazol-4-yl)pyrimidin-2-yl)amino)cyclohexyl)methanol] was tested. Which β-Catenin activity did it give?
Answer: + (+ indicates low, yet significant activation at a compound concentration of 6 μM)

Question: For `Cn1ncc(-c2ccnc(N[C@H]3CC[C@H](N(C)C)CC3)n2)c1CC1CC1` [Compound A28, (1r, 4r)-N^1-(4-(5-(cyclopropylmethyl)-1-methyl-1H-pyrazol-4-yl)pyrimidin-2-yl)-N4,N4-dimethylcyclohexane-1,4-diamine], which β-Catenin activity is on record?
Answer: +++ (+++ indicates maximal β-catenin or p53 stabilization at >2 μM)

Question: Which β-Catenin activity does the source give for `Cn1ncc(-c2ccnc(N[C@H]3CC[C@H](N)CC3)n2)c1CC1CCC1` [Compound A45, (1R, 4R)—N^1-(4-(5-(cyclobutylmethyl)-1-methyl-1H-pyrazol-4-yl)pyrimidin-2-yl)cyclohexane-1,4-diamine] here?
Answer: + (+ indicates low, yet significant activation at a compound concentration of 6 μM)

Question: `Cn1ncc(-c2ccnc(N[C@H]3CC[C@H](N4CCCCC4)CC3)n2)c1CC1CC1` [Compound A47, 4-(5-(cyclopropylmethyl)-1-methyl-1H-pyrazol-4-yl)-N-((1R,4R)-4-(piperidin-1-yl)cyclohexyl)pyrimidin-2-amine] was tested. Which β-Catenin activity did it give?
Answer: + (+ indicates low, yet significant activation at a compound concentration of 6 μM)

system: p53, DNA damage response (γH2AX); assay: p53 and DNA damage response activation in RKO cells (Western blot, primary screen and dose response); assay type: cell-based; parameters: p53 stabilization: dose or concentration left out as unconfirmed; details: 16 hours, Western blot, average value
Method: as §1, §2, §3

Question: Which “DDR & p53 activity” value does the source give for `Cn1ncc(-c2ccnc(NC3CCC(N)(CO)CC3)n2)c1CC1CC1` (centres unmarked) [Compound A19, (1-amino-4-((4-(5-(cyclopropylmethyl)-1-methyl-1H-pyrazol-4-yl)pyrimidin-2-yl)amino)cyclohexyl)methanol] here?
Answer: + (+ indicates low, yet significant activation at a compound concentration of 6 μM)

Question: `Cn1ncc(-c2nc(NC3CCC(C)(N)CC3)ncc2Cl)c1CC1CC1` [Compound A30-1, (1R,4R)—N^1-(5-chloro-4-(5-(cyclopropylmethyl)-1-methyl-1H-pyrazol-4-yl)pyrimidin-2-yl)-4-methylcyclohexane-1,4-diamine] was tested. Which “DDR & p53 activity” value did it give?
Answer: ++++ (++++ indicates maximal activation of p53 and DDR at >0.5 μM)

Question: How did the “DDR & p53 activity” value turn out when `CC(C)n1ncc(-c2ccnc(N[C@H]3CC[C@H](N)CC3)n2)c1CC1CC1` [Compound A35, (1r, 4r)-N^1-(4-(5-(cyclopropylmethyl)-1-isopropyl-1H-pyrazol-4-yl)pyrimidin-2-yl)cyclohexane-1,4-diamine] was run?
Answer: +++ (+++ indicates maximal β-catenin or p53 stabilization at >2 μM)

Question: For `N[C@H]1CC[C@H](Nc2nccc(-c3cnn(C4COC4)c3CC3CC3)n2)CC1` [Compound A43, (1R, 4R)—N^1-(4-(5-(cyclopropylmethyl)-1-(oxetan-3-yl)-1H-pyrazol-4-yl)pyrimidin-2-yl)cyclohexane-1,4-diamine], which “DDR & p53 activity” value is on record?
Answer: + (+ indicates low, yet significant activation at a compound concentration of 6 μM)

Question: Which “DDR & p53 activity” value does the source give for `Cn1ncc(-c2ccnc(N[C@H]3CC[C@H](N4CCCC4)CC3)n2)c1CC1CC1` [Compound A49, 4-(5-(cyclopropylmethyl)-1-methyl-1H-pyrazol-4-yl)-N-((1R, 4R)-4-(pyrrolidin-1-yl)cyclohexyl)pyrimidin-2-amine] here?
Answer: + (+ indicates low, yet significant activation at a compound concentration of 6 μM)

Question: How did the “DDR & p53 activity” value turn out when `Cn1ncc(-c2ccnc(N[C@H]3CC[C@H](N4CCC4)CC3)n2)c1CC1CC1` [Compound A50, N-((1R, 4R)-4-(azetidin-1-yl)cyclohexyl)-4-(5-(cyclopropylmethyl)-1-methyl-1H-pyrazol-4-yl)pyrimidin-2-amine] was run?
Answer: +++ (+++ indicates maximal β-catenin or p53 stabilization at >2 μM)

Question: With `Cn1ncc(-c2ccnc(N[C@H]3CC[C@H](N)CC3)n2)c1C(O)C1CC1` (stereo partly drawn) [Compound A58, (4-(2-(((1R,4R)-4-aminocyclohexyl)amino)pyrimidin-4-yl)-1-methyl-1H-pyrazol-5-yl)(cyclopropyl)methanol] as the molecule, how does the “DDR & p53 activity” value read?
Answer: + (+ indicates low, yet significant activation at a compound concentration of 6 μM)

Question: With `CC(C)n1ncc(-c2nc(N[C@H]3CC[C@H](N)CC3)ncc2Cl)c1CC1CC1` [Compound A59, (1R,4R)—N^1-(5-chloro-4-(5-(cyclopropylmethyl)-1-isopropyl-1H-pyrazol-4-yl)pyrimidin-2-yl)cyclohexane-1,4-diamine] as the molecule, how does the “DDR & p53 activity” value read?
Answer: +++ (+++ indicates maximal β-catenin or p53 stabilization at >2 μM)

Question: For `Cn1ncc(-c2nc(N[C@H]3CC[C@H](n4cccn4)CC3)ncc2Cl)c1CC1CC1` [Compound A64, N-((1R,4R)-4-(1H-pyrazol-1-yl)cyclohexyl)-5-chloro-4-(5-(cyclopropylmethyl)-1-methyl-1H-pyrazol-4-yl)pyrimidin-2-amine], which “DDR & p53 activity” value is on record?
Answer: + (+ indicates low, yet significant activation at a compound concentration of 6 μM)

Question: For `Cn1ncc(-c2nc(NC3CCC(NCc4ccccc4)CC3)ncc2Cl)c1CC1CC1` [Compound A74, (1R,4R)—N^1-benzyl-N^4-(5-chloro-4-(5-(cyclopropylmethyl)-1-methyl-1H-pyrazol-4-yl)pyrimidin-2-yl)cyclohexane-1,4-diamine], which “DDR & p53 activity” value is on record?
Answer: +++ (+++ indicates maximal β-catenin or p53 stabilization at >2 μM)

Question: `Cn1ncc(-c2nc(NC3CCC(NCc4cccnc4)CC3)ncc2Cl)c1CC1CC1` [Compound A76, (1R,4R)—N^1-(5-chloro-4-(5-(cyclopropylmethyl)-1-methyl-1H-pyrazol-4-yl)pyrimidin-2-yl)-N^4-(pyridin-3-ylmethyl)cyclohexane-1,4-diamine] was tested. Which “DDR & p53 activity” value did it give?
Answer: +++ (+++ indicates maximal β-catenin or p53 stabilization at >2 μM)

Question: `Cn1ncc(-c2nc(NC3CCC(NCc4ccn[nH]4)CC3)ncc2Cl)c1CC1CC1` [Compound A82, (1R,4R)—N^1-((1H-pyrazol-3-yl)methyl)-N^4-(5-chloro-4-(5-(cyclopropylmethyl)-1-methyl-1H-pyrazol-4-yl)pyrimidin-2-yl)cyclohexane-1,4-diamine] was tested. Which “DDR & p53 activity” value did it give?
Answer: +++ (+++ indicates maximal β-catenin or p53 stabilization at >2 μM)

Question: How did the “DDR & p53 activity” value turn out when `Cc1[nH]ncc1CN[C@H]1CC[C@H](Nc2ncc(Cl)c(-c3cnn(C)c3CC3CC3)n2)CC1` [Compound A91, (1R,4R)—N^1-(5-chloro-4-(5-(cyclopropylmethyl)-1-methyl-1H-pyrazol-4-yl)pyrimidin-2-yl)-N^4-((5-methyl-1H-pyrazol-4-yl)methyl)cyclohexane-1,4-diamine] was run?
Answer: +++ (+++ indicates maximal β-catenin or p53 stabilization at >2 μM)

Question: With `Cn1ncc(-c2nc(N[C@H]3CC[C@H](NCC(F)(F)F)CC3)ncc2Cl)c1CC1CC1` [Compound A94, (1R,4R)—N^1-(5-chloro-4-(5-(cyclopropylmethyl)-1-methyl-1H-pyrazol-4-yl)pyrimidin-2-yl)-N^4-(2,2,2-trifluoroethyl)cyclohexane-1,4-diamine] as the molecule, how does the “DDR & p53 activity” value read?
Answer: + (+ indicates low, yet significant activation at a compound concentration of 6 μM)

Question: Which “DDR & p53 activity” value does the source give for `Cn1ncc(-c2nc(N[C@H]3CC[C@H](N(Cc4cn[nH]c4)CC(F)(F)F)CC3)ncc2Cl)c1CC1CC1` [Compound A95, (1R,4R)—N1-((1H-pyrazol-4-yl)methyl)-N4-(5-chloro-4-(5-(cyclopropylmethyl)-1-methyl-1H-pyrazol-4-yl)pyrimidin-2-yl)-N1-(2,2,2-trifluoroethyl)cyclohexane-1,4-diamine] here?
Answer: +++ (+++ indicates maximal β-catenin or p53 stabilization at >2 μM)

same assay, conditions: FIG. 1A

Question: What does the source list for `CC(C)n1ncc(-c2ccnc(N[C@H]3CC[C@H](N)CC3)n2)c1CC1CC1` [Compound A35, (1r, 4r)-N^1-(4-(5-(cyclopropylmethyl)-1-isopropyl-1H-pyrazol-4-yl)pyrimidin-2-yl)cyclohexane-1,4-diamine]?
Answer: concentration at which p53 stabilization starts / is significantly above non-treatment control: 0.2 µM; concentration of maximal p53 stabilization: 1 µM

Question: How did the concentration at which p53 stabilization starts / is significantly above non-treatment control turn out when `N[C@H]1CC[C@H](Nc2nccc(-c3cnn(C4COC4)c3CC3CC3)n2)CC1` [Compound A43, (1R, 4R)—N^1-(4-(5-(cyclopropylmethyl)-1-(oxetan-3-yl)-1H-pyrazol-4-yl)pyrimidin-2-yl)cyclohexane-1,4-diamine] was run?
Answer: 6 µM

Question: What about the p53 stabilization of the same molecule?
Answer: no activity
